AC50 and growth change, negative = inhibition data for 53 compounds are collected here from PubChem BioAssay AID623903 (Broad Institute, 2012).

A word on the AC50: it is the concentration at which the activity in the assay is half-maximal.

Where “and” joins values, the source holds several entries; their conditions need not be identical. Equal values may be shown once. Calls of active or inactive are those of the source.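 The calls were made as follows: active = compounds cutting yeast growth whose half-maximal concentration is at most twice their top valid dose; inconclusive = flat growth loss of 30 to 70 percent, or poor fit; inactive = the rest.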

The test system of the first test is Candida glabrata growth in glycerol, OD600, 48 h. The experiment in a line: antifungal activity against respiring C. glabrata – glycerol medium, OD600, powder samples, set 2, dose response (AID 623903).
Settings: not given
As for `CCOC(=O)N1C(=O)C2(CCCCC2)N(c2ccc(Cl)cc2)C1=S`, the AC50 is less than 23.5 nM. Still for that read-out and setting: the same measure for `CCOC(=O)N1C(=O)C2(CCCCC2)N(c2ccc(C(F)(F)F)cc2)C1=S`: 44.3 nM; for `CCOC(=O)N1C(=O)C2(CCCCC2)N(C(C)C)C1=S`: 2750 nM; for `CCCOC(=O)N1C(=O)C2(CCCCC2)N(c2ccc(C)cc2)C1=S`: 95.3 nM. Same read-out and setting: the same measure for `CCOC(=O)N1C(=O)C2(CCCCC2)N(c2ccc(C#N)cc2)C1=S`: 67.2 nM; for `CCOC(=O)N1C(=O)C2(CCCCC2)N(c2ccc(CC)cc2)C1=S`: 133 nM. In the case of `CCOC(=O)N1C(=O)C2(CCC2)N(c2ccc(C)cc2)C1=S`, the AC50 is 2510 nM.

Turning to `CCCCN1C(=O)N(c2ccc(C)cc2)C2(CCCCC2)C1=S`, the AC50 was > 12000 nM (inactive). Turning to `Cc1ccc(N2C(=S)NC(=O)C23CCOCC3)cc1`, the AC50 is > 12000 nM (inactive). On to `CCCc1ccc(N2C(=S)N(C(=O)OCC)C(=O)C23CCCCC3)cc1`, for which the AC50 is 629 nM. The same measure, in the same setting: the same measure for `CCOC(=O)N1C(=O)C2(CCCCC2)N(c2ccc(-c3ccccc3)cc2)C1=S`: 242 nM. On the same count and under the same terms, the figure for `Cc1ccc(N2C(=S)N(C(=O)OCc3ccccc3)C(=O)C23CCCCC3)cc1` is 5540 nM. Same read-out and setting: the same measure for `CC1/C=C/C=C\C=C\C=C\C=C\C=C\C=C\C(O[C@H]2OC(C)C(O)C(N)C2O)CC2OC(O)(CC(O)CC(O)C(O)CCC(O)CC(O)CC(=O)OC(C)C(C)C1O)CC(O)C2C(=O)O` (stereo partly drawn): 205 nM; for `CCOC(=O)N1C(=O)C2(CCCCC2)N(c2ccccc2)C1=S`: 28.9 nM; for `CCOC(=O)N1C(=O)C2(CCCC2)N(c2ccc(C)cc2)C1=S`: 315 nM. As for `CCOC(=O)N1C(=O)C2(CCCCC2)N(c2ccc(C)cc2)C1=S`, the AC50 was 56.4 nM and 45.2 nM. Consider `CCOC(=O)N1C(=O)C2(CCCCC2)N(c2ccc(F)cc2)C1=S`, for which the AC50 is less than 23.5 nM. The same measure, in the same setting: the figure for `Cc1ccc(N2C(=S)N(C(=O)OC(C)C)C(=O)C23CCCCC3)cc1` is 638 nM; for `CCOC(=O)N1C(=O)C2(CCCCC2)N(Cc2ccccc2)C1=S` it is less than 23.5 nM. Still for that read-out and setting: the figure for `COC(=O)N1C(=O)C2(CCCCC2)N(c2ccc(C)cc2)C1=S` is 136 nM; for `CCOC(=O)N1C(=S)N(c2ccc(C)cc2)C2(CCCCC2)C1=NCc1ccccc1` it is 3750 nM; for `CCCC(=O)N1C(=O)C2(CCCCC2)N(c2ccc(C)cc2)C1=S` it is 102 nM. The same measure, in the same setting: the figure for `CCOC(=O)N1C(=O)C2(CCOCC2)N(c2ccc(C)cc2)C1=S` is 1480 nM; for `CCOC(=O)N1C(=O)C2(CCCCC2)N(c2cccc(C)c2)C1=S` it is 86.6 nM.

In the case of `CCOC(=O)N1C(=O)C2(CCCCC2)N(c2ccccc2C)C1=S`, the AC50 was 541 nM.

In the case of `CCCCN1C(=O)C2(CCCCC2)N(c2ccc(C)cc2)C1=S`, the AC50 was > 12000 nM (inactive).

With `CCOC(=O)N1C(=O)C2(CCCCC2)N(c2ccc(C(C)(C)C)cc2)C1=S`, the AC50 is 1980 nM.

In the case of `CCOC(=O)N1C(=O)C2(CCCCC2)N(c2ccc(C(C)C)cc2)C1=S`, the concentration at half-maximal activity (AC50) was 829 nM.

Consider `CCOC(=O)N1C(=O)C2(CCCCC2)N(c2ccc(OC)cc2)C1=S`, for which the AC50 was 255 nM.

System in another test: not listed separately
Described as above. Particulars: Candida glabrata growth in glycerol, OD600, 48 h; at 6 µM (top of the series).
As to `CCCCN1C(=O)N(c2ccc(C)cc2)C2(CCCCC2)C1=O`, the growth change, negative = inhibition is -2.19% (inactive). Still for that read-out and setting: the figure for `CC(C)N1C(=S)NC(=O)C12CCCCC2` is 5.61% (inactive); for `CCOC(=O)N1C(=O)N(c2ccc(C)cc2)C2(CCCCC2)C1=O` it is -38.8% (inactive); for `Cc1ccc(N2C(=O)NC(=O)C23CCCCC3)cc1` it is 44.5% (inactive). Consider `Cc1ccc(N2C(=O)C3(CCCCC3)NC2=S)cc1`, for which the growth change, negative = inhibition is 5.63% (inactive). Still for that read-out and setting: the figure for `Cc1ccc(N2C(=S)N(C)C(=O)C23CCCCC3)cc1` is -20.3% (inactive). Consider `O=C1NC(=S)NC12CCCCC2`, for which the growth change, negative = inhibition was 10.1% (inactive).

Take `O=C1NC(=S)N(Cc2ccccc2)C12CCCCC2`: the growth change, negative = inhibition is -0.552% (inactive). On the same count and under the same terms, the same measure for `CCOC(=O)N1C(=S)NC(=O)C12CCCCC2`: 11.1% (inactive); for `Cc1ccc(N2C(=S)NC(=O)C23CCC3)cc1`: 3.27% (inactive); for `Cc1ccc(N2C(=S)NC(=O)C23CCCCC3)cc1`: -3.05% (inactive). Regarding `CCOC(=O)N1C(=O)C2(CCCCC2)NC1=S`, the growth change, negative = inhibition was -2.7% (inactive). Take `O=C1NC(=S)N(c2ccccc2)C12CCCCC2`: the growth change, negative = inhibition was 21.1% (inactive). Same read-out and setting: the same measure for `Cc1ccc(N2C(=S)NC(=O)C2(C)C)cc1`: -2.42% (inactive); for `Cc1ccc(N2C(=S)N(S(C)(=O)=O)C(=O)C23CCCCC3)cc1`: 1.2% (inactive).

Consider `Cc1ccc(N2CC(=O)NC2=O)cc1`, for which the growth change, negative = inhibition is 28.9% (inactive). Same read-out and setting: the same measure for `CCOC(=O)N1C(=O)C(C)(C)N(c2ccc(C)cc2)C1=S`: -13.4% (inactive); for `Cc1ccc(N2C(=O)N(C)C(=O)C23CCCCC3)cc1`: 24.2% (inactive). On the same count and under the same terms, the figure for `Cc1ccc(N2C(=S)N(C(=O)Oc3ccccc3)C(=O)C23CCCCC3)cc1` is -4.17% (inactive). With `Cc1ccc(N2C(=S)NC(=O)C23CCCC3)cc1`, the growth change, negative = inhibition was -31.4% (inactive). On the same count and under the same terms, the same measure for `O=C1NC(=S)N(c2ccc(F)cc2)C12CCCCC2`: -17.4% (inactive); for `CCOC(=O)N1C(=S)N(c2ccc(C)cc2)C(=O)C12CCCCC2`: 14.3% (inactive); for `Cc1ccc(N2CC(=O)NC2=S)cc1`: 3.32% (inactive). Still for that read-out and setting: the same measure for `Cc1ccc(N2C(=O)C(=O)NC2=S)cc1`: 19.6% (inactive).
